# Test results published in patent US20040037806A1, “Aldosterone blocker therapy to prevent or treat inflammation-related disorders” (Pharmacia Corporation, priority 2002, published 2004).
# “Also recorded” adds a separate entry of the source.
# Assays:
# Format in all cases: in vivo, rat
# [1] = Assay C: aldosterone infusion study, radiotelemetrized arterial blood pressure; settings: 30-day protocol; uninephrectomized Sprague-Dawley rats, aldosterone + salt alone or with eplerenone 100 mg/kg/day
# Experimental: The procedure of Assay B was expanded upon in a further study. […] Myocardial tissue from animals in each treatment group was examined after 7, 14, or 30 days of treatment. […] Lesions were preceded by the expression and progressive upregulation of proinflammatory molecules.
# Male Sprague-Dawley rats, weighing 230 to 250 g, (Harlan Sprague-Dawley Industries, Indianapolis, Ind.) were housed in a room 12-hours light/12-hours dark daily cycle at an ambient temperature of 22±1° C. (n=96). Animals were allowed one week to adjust after arrival and had free access to TEKLAD 22/5 rodent diet (Harlan TEKLAD, Madison, Wis.) and tap water until the initiation of the experiment.
# Potassium chloride supplementation was added to the saline solution in order to prevent the potential hypokalemia associated with aldosterone excess.
# Treatment At the time of the surgery, an Alzet 2002 osmotic minipump (Alza Corp., Palo Alto, Calif.) containing either vehicle (9% ethanol/87% propylene glycol/4% dH2O) or 1.0 mg/mL d-aldosterone (Sigma Chemical, St. Louis, Mo.) was inserted subcutaneously at the nape of the neck. […]
# Animals to be sacrificed after 7 or 14 days of treatment were uninephrectomized and implanted with an Alzet minipump. […] Animals were monitored daily for signs of distress and infection at the surgical site. […]
# Radiotelemetrized arterial blood pressure was calculated with the […]
# osteopontin [2] = assay: Assay B: osteopontin immunohistochemistry in the heart; settings: aldosterone-infused, saline-drinking, uninephrectomized rats, eplerenone 100 mpk p.o, increased dietary potassium
# Experimental: (§1) Assay B: In Vivo Aldosterone Infusion Model
# Determination of osteopontin and COX-2 was performed by quantitative RT-PCR (Taqman). Osteopontin was also identified in the heart by immunohistochemistry.
# [3] = Assay B: aldosterone infusion model, systolic blood pressure by radio-telemetry; settings: uni-nephrectomized Sprague Dawley rats, 1% NaCl, aldosterone 0.75 mg/hr sc, 4 weeks, eplerenone 100 mpk p.o
# Experimental: as §1
# Male Sprague Dawley rats (n=39; BW=250 g)
# Uni-nephrectomy performed during implantation of mini-pumps
# 2. Aldosterone (0.75 mg/hr, sc via alzet minipump)
# 1. Aldosterone (0. 75 mg/hr, sc via alzet minipump)+0.6% KCl in the drinking fluid
# Groups 1, 2 and 3 received only 0.3% KCl in the drinking solution
# SBP measured by radio-telemetry probes inserted in the abdominal aorta
# osteopontin [4] = assay: Assay A: osteopontin immunostaining of hearts; settings: angiotensin II-infused, saline-drinking Wistar rats; eplerenone 100 mpk; aldosterone replacement in adrenalectomized rats
Structure (SMILES),Systolic blood pressure (radiotelemetry) [1],Osteopontin expression in the heart (immunostaining) (osteopontin [2]),Systolic blood pressure [3],Osteopontin expression in the heart (immunostaining) (osteopontin [4]),Osteopontin expression in the heart (immunostaining) (osteopontin [2]; listed as Eplerenone),Systolic blood pressure ([3]; listed as Eplerenone)
C[C@]12CCC(=O)C=C1CC[C@@H]1[C@@H]2[C@@H](O)C[C@]2(C=O)[C@@H](C(=O)CO)CC[C@@H]12 [aldosterone],induced severe hypertension; also recorded: induced a progressive increase in blood pressure with time,clearly identified in the media of coronary arteries,increased; also recorded: systolic blood pressure elevation,restored osteopontin expression,,
COC(=O)[C@@H]1CC2=CC(=O)CC[C@]2(C)[C@@]23O[C@@H]2C[C@@]2(C)[C@@H](CC[C@@]24CCC(=O)O4)[C@H]13 [eplerenone],significantly reduced at days 8-30; also recorded: remained elevated compared to vehicle+salt controls,prevention by eplerenone of induction of osteopontin expression; also recorded: prevention by eplerenone of osteopontin upregulation,depression of this elevation,prevented osteopontin expression,prevented the expression of osteopontin,"significantly reduced, but did not normalize blood pressure"
